# Test results taken from patent US20110319409A1, “7-AZA-QUINAZOLINE PDE10 INHIBITORS” (priority 2010, published 2011).
# Molecular target: T1, human PDE10A2 (Homo sapiens, UniProt Q9Y233)
# T1 construct: made in house; host or cells: AD293 cells, transiently transfected; cytoplasmic fraction of the lysate used as enzyme
# Test: PDE10 fluorescence polarization (IMAP FP) assay
# Type: biochemical
# Settings: human PDE10 enzyme, FAM-labeled cAMP substrate 50 nM
# Procedure: The activity of the compounds in accordance with the present invention as PDE10 inhibitors may be readily determined without undue experimentation using a fluorescence polarization (FP) methodology well known in the art (Huang, W., et al., J. Biomol Screen, 2002, 7: 215).
# In a typical experiment the PDE10 inhibitory activity of the compounds of the present invention is determined in accordance with the following experimental method. PDE10A2 is amplified from human fetal brain cDNA (Clontech, Mountain View, Calif.) using a forward primer corresponding to nucleotides 56-77 of human PDE10A2 (Accession No. AF127480, Genbank Identifier 4894716), containing a Kozak consensus sequence, and a reverse primer Corresponding to nucleotides 2406-2413 of human PDE10A2 (Accession No. AF127480, Genbank Identifier 4894716). Amplification with Easy-A polymerase (Stratagene, La Jolla, Calif.) is carried out at 95° C. for 2 minutes followed by thirty three cycles of 95° C. for 40 seconds, 55° C. for 30 seconds, and 72° C. for 2 minutes 48 seconds. Final extension is at 72° C. for 7 minutes. The PCR product is TA cloned into pcDNA3.2-TOPO (Invitrogen, Carlsbad, Calif.) according to standard protocol.
# AD293 cells with 70-80% confluency are transiently transfected with human PDE10A2/pcDNA3.2-TOPO using Lipofectamine 2000 according to manufacturer specifications (Invitrogen, Carlsbad, Calif.). Cells are harvested 48 hours post-transfection and lysed by sonication (setting 3, 10×5 sec pulses) in a buffer containing 20 mM HEPES, 1 mM EDTA and protease inhibitor cocktail (Roche). Lysate is collected by centrifugation at 75,000×g for 20 minutes. Supernatant containing the cytoplasmic fraction is used for evaluation of PDE10A2 activity.
# The fluorescence polarization assay for cyclic nucleotide phosphodiesterases is performed using an IMAP® FP kit supplied by Molecular Devices, Sunnyvale, Calif. (product #R8139). IMAP® technology has been applied previously to phosphodiesterase assays (Huang, W., et al., J. Biomol Screen, 2002, 7: 215). Assays are performed at room temperature in 384-well microtiter plates with an incubation volume of 20.2 μL. Solutions of test compounds are prepared in DMSO and serially diluted with DMSO to yield 8 μL of each of 10 solutions differing by 3-fold in concentration, at 32 serial dilutions per plate. 100% inhibition is determined using a known PDE10 inhibitor, which can be any compound that is present at 5,000 times its Ki value in the assay described as follows, such as papaverine (see Siuciak, et al. Neuropharmacology (2006) 51:386-396; Becker, et al. Behav Brain Res (2008) 186(2):155-60; Threlfell, et al., J Pharmacol Exp Ther (2009) 328(3):785-795), 2-{4-[pyridin-4-yl-1-(2,2,2-trifluoroethyl)-1H-pyrazol-3-yl]phenoxymethyl}quinoline succinic acid or 2-[4-(1-methyl-4-pyridin-4-yl-1H-pyrazol-3-yl)-phenoxymethyl]quinoline succinic acid (see Schmidt, et al. J Pharmacol Exp Ther (2008) 325:681-690; Threlfell, et al., J Pharmacol Exp Ther (2009) 328(3): 785-795). 0% of inhibition is determined by using DMSO (1% final concentrations).
# A Labcyte Echo 555 (Labcyte, Sunnyvale, Calif.) is used to dispense 200 nL from each well of the titration plate to the 384 well assay plate. A solution of enzyme (1/1600 dilution from aliquots; sufficient to produce 20% substrate conversion) and a separate solution of FAM-labeled cAMP PDE from Molecular Devices (product # R7506), at a final concentration of 50 nM are made in the assay buffer (10 mM Tris HCl, pH 7.2, 10 mM MgCl2, 0.05% NaN3 0.01% Tween-20, and 1 mM DTT). The enzyme and the substrate are then added to the assay plates in two consecutive additions of 10 μL, and then shaken to mix. The reaction is allowed to proceed at room temperature for 30 minutes. A binding solution is then made from the kit components, comprised of 80% Solution A, 20% Solution B and binding reagent at a volume of 1/600 the total binding solution. […]
# T1 sequence (Q9Y233 267-1055): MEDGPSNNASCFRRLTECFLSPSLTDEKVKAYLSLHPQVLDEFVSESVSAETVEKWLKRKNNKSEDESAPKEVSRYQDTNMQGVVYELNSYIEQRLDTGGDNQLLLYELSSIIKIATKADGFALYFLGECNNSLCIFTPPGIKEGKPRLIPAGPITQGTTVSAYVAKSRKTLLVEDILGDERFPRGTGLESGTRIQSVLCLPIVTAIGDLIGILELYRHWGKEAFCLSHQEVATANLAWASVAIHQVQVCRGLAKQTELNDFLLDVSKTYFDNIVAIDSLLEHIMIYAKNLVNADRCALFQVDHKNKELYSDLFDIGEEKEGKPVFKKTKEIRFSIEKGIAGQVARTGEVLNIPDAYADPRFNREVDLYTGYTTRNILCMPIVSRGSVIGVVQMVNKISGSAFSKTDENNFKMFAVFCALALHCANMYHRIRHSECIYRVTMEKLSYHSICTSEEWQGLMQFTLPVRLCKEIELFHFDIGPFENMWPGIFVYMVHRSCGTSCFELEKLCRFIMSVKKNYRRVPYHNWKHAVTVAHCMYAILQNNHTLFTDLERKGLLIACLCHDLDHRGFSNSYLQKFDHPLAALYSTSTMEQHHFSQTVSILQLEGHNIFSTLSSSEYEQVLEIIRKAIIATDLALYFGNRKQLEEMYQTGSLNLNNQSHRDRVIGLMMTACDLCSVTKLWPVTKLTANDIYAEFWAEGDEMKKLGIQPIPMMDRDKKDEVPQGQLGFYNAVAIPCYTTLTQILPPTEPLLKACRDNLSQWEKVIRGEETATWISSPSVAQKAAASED
row,SMILES,Ki
1,"c1cc(-c2nc(OCc3ccncc3)c3ccncc3n2)cc(-c2ncco2)c1 [1-9, 2-[3-(1,3-Oxazol-2-yl)phenyl]-4-(pyridin-4-ylmethoxy)pyrido[3,4-d]pyrimidine]",2.7 nM
2,"O=S(=O)(c1cccc2c1CN(c1nc(NCc3ccncc3)c3ccncc3n1)CC2)N1CCOCC1 [1-8, 2-[8-(Morpholin-4-ylsulfonyl)-3,4-dihydroisoquinolin-2(1H)-yl]-N-(pyridin-4-ylmethyl)pyrido[3,4-d]pyrimidin-4-amine]",0.23 nM
3,"COc1ncccc1-c1cncc(-c2nc(NCc3cncnc3)c3ccncc3n2)c1 [1-11, 2-(2′-methoxy-3,3′-bipyridin-5-yl)-N-(pyrimidin-5-ylmethyl)pyrido[3,4-d]pyrimidin-4-amine]",0.84 nM
4,"Cc1ncccc1-c1cccc(-c2nc(NCc3ccncc3)c3ccncc3n2)c1 [1-1, 2-[3-(2-Methylpyridin-3-yl)phenyl]-N-(pyridin-4-ylmethyl)pyrido[3,4-d]pyrimidin-4-amine]",1.4 nM
5,c1cc(-c2nc(NCCN3CCOCC3)c3ccncc3n2)cc(-c2cncc3ccccc23)c1 [1-7],0.55 nM
6,"CC(C)OC(=O)c1cccc(-c2nc(NCc3ccncc3)c3ccncc3n2)c1 [1-13, isopropyl 3-{4-[(pyridin-4-ylmethyl)amino]pyrido[3,4-d]pyrimidin-2-yl}benzoate]",1.4 nM
7,"COc1ncccc1-c1cccc(-c2nc(NCc3cncnc3)c3ccncc3n2)c1 [1-4, 2-[3-(2-Methoxypyridin-3-yl)phenyl]-N-(pyrimidin-5-ylmethyl)pyrido[3,4-d]pyrimidin-4-amine]",0.41 nM
8,"COc1ncccc1-c1cccc(-c2nc(NCCO)c3ccncc3n2)c1 [1-3, 2-({2-[3-(2-Methoxypyridin-3-yl)phenyl]pyrido[3,4-d]pyrimidin-4-yl}amino)ethanol]",2.7 nM

# Now from value to molecule:
row,Ki,SMILES
1,5.6 nM,"c1ccc2c(c1)CCN(c1nc(NCc3ccncc3)c3ccncc3n1)C2 [B-4, 2-(3,4-Dihydroisoquinolin-2(1H)-yl)-N-(pyridin-4-ylmethyl)pyrido[3,4-d]pyrimidin-4-amine]"
2,0.4 nM,"COc1ncccc1-c1cccc(-c2nc(NCc3ccncc3)c3ccncc3n2)c1 [A-6, 2-{3-[2-(Methyloxy)pyridin-3-yl]phenyl}-N-(pyridin-4-ylmethyl)pyrido[3, d]pyrimidin-4-amine]"
3,131 nM,"C(=C\c1nc(NCc2cncnc2)c2ccncc2n1)/c1ccccc1 [C-2, 2-[(E)-2-Phenylvinyl]-N-(pyrimidin-5-ylmethyl)pyrido[3,4-d]pyrimidin-4-amine]"
